In patent US20140155321A1, “Polypeptides and Their Use” (Novabiotics Limited, priority 2012, published 2014):
Like-named read-outs stand apart in the source and are kept apart here.

Legend:
M. furfur DSMZ6170 [1] = test: MIC by modified CLSI M27-A3 broth dilution versus M. furfur DSMZ6170; format: cell-based, Malassezia furfur
Experimental: (§1) The minimum inhibitory concentration (MIC) of all materials was determined according to methods described in the Clinical and laboratory Standards institute Approved Standard “Reference Method for Broth Dilution Antifungal Susceptibility Testing of Yeasts—Third Edition (M27-A3)” with the following modifications. In place of RPMI-1640 liquid medium, Modified Christensen's Medium, without the addition of agar, was used.

M. pachydermatis CBS6536 [2] = test: Antifungal efficacy in Head & Shoulders conditioner, surviving colony count; format: cell-based, Malassezia pachydermatis; details: FIG. 6
Experimental: (§2) In a further experiment, the effect of incubation time on killing of Malassezia spp. was investigated. The following materials were tested: • 1. 0.04% (w/v) Zinc Pyrithione in 19.2% (v/v) Head &Shoulders conditioner • 2. 1.0% (w/v) NP108 in 19.2% (v/v) Head & Shoulders conditioner • 3. 19.2% (v/v) Head & Shoulders conditioner
(§3) All yeast inocula for this experiment were prepared to the 0.5 McFarland Standard. 400 d of yeast inoculum was exposed to 100 μl of the materials described above and incubated at 30° C. for 0, 3, 10, 30 or 60 min, followed by washing to remove all traces of the materials. Serial dilutions of the yeasts were prepared (10^0-10^−5; 10-fold dilutions) and 100 μl was spread on Modified Christensen's Medium and incubated at 30° C. for 48 h and numbers of surviving colonies counted. All experiments were carried out in triplicate.
In the following experiment, all samples of M. pachydermatis CBS6536 (0.5 McFarland Standard) were exposed to 10% (v/v) Head & Shoulders (H & S) Conditioner, containing 0 (0%), 1.0 (0.1%) or 10.0 (1.0%) mg/ml NP108. The positive control samples were exposed to 10% (v/v) Head & Shoulders Conditioner. The negative control samples were exposed to water alone.

[3] = test system: human dermal fibroblast (BJ) cells; test: Cytotoxicity versus human dermal fibroblast (BJ) cells; format: cell-based; details: BJ fibroblasts
Experimental: (§4) Haematotoxicity versus 10% human red blood cells and cyctotoxicity versus human dermal fibroblast (BJ) cells and human lung epithelial (A549) cells was determined by standard in vitro procedures known to those skilled in the art (Table 1 and FIG. 1).

M. furfur DSMZ6170 [4] = test: Antifungal efficacy in conditioner vehicles, surviving colony count; format: cell-based, Malassezia furfur; details: for killing of M. furfur: 60 min exposure
Experimental: The antifungal efficacy of NP108 was tested in a conditioner vehicle. The following materials were tested: • 1. 10% (v/v) Head & Shoulders conditioner (anti-dandruff conditioner) • 2. 10% (v/v) Pantene conditioner (“normal” conditioner) • 3. 10% (v/v) Pantene conditioner (“normal” conditioner)+4% (w/v) NP 108 • 4. Phosphate Buffered Saline (PBS)
as §3, with “400 μl” for “400 d”, “above for 1 h” for “above and incubated”, “at 37° C.,” for “at 30° C. for 0, 3, 10, 30 or 60 min,”
as §2, §3
In the following experiment, all samples of M. furfur DSMZ6170 (0.5 McFarland Standard) were exposed to 10% (v/v) H & S Conditioner, containing 10.0 (1.0%) mg/ml NP108 or 0.4 mg/ml zinc pyrithione (the active ingredient in H & S shampoo). The control samples were exposed to 10% (v/v) H & S Conditioner. The negative control samples were exposed to water alone (data not shown).
In the following experiment, all samples of M. furfur DSMZ6170 (0.5 McFarland Standard) were exposed to 10% (v/v) H & S Conditioner or 10% (v/v) Pantene Conditioner and a further treatment of 40 mg/ml NP108 (4.0%) in 10% (v/v) Pantene Conditioner. The control sample was exposed to PBS alone. All incubations were carried out for 60 min.

M. furfur DSMZ6170 [5] = test: Antifungal efficacy in a shampoo vehicle, surviving colony count; format: cell-based, Malassezia furfur; details: 40 mg/ml NP108 in 10% (v/v) Pantene shampoo; 60 min exposure; FIG. 5
Experimental: The antifungal efficacy of NP108 was tested in a shampoo vehicle. The following materials were tested: • 1. 10% (v/v) Head & Shoulders shampoo (anti-dandruff shampoo) • 2. 10% (v/v) Pantene shampoo (“normal” shampoo) • 3. 10% (v/v) Pantene shampoo (“normal” shampoo)+4% (w/v) NP108 • 4. Phosphate Buffered Saline (PBS)
as §3, with “400 μl” for “400 d”, “above for 1 h” for “above and incubated”, “at 37° C.,” for “at 30° C. for 0, 3, 10, 30 or 60 min,”, “the yeast inocula” for “the yeasts”
In the following experiment, all samples of M. furfur DSMZ6170 (0.5 McFarland Standard) were exposed to 10% (v/v) Head & Shoulders (H & S) Shampoo, 10% (v/v) Pantene Shampoo and 10% (v/v) Pantene Shampoo containing 40.0 (4.0%) mg/ml NP108. The negative control samples were exposed to phosphate-buffered saline (PBS) alone. H & S Shampoo contains zinc pyrithione (˜1%) as an antifungal agent proven to kill Malassezia spp.

[6] = test system: Malassezia pachydermatis (CBS6536); details: for positive skin cultures / approximate number of cfu from skin biopsies, Group ave.: 10 d post-infection, 5% (w/v) NP108 or 2% (w/v) miconazole topical; for approximate number of cfu from skin biopsies, Group ave.: 3 days incubation; for Group ave. Day+10 clinical score: topical once a day for 6 d from 48 h post-infection, 5% (w/v) NP108 or 2% (w/v) miconazole, score 3.0 = significant crusting/erythema
Experimental: Determination of the Efficacy of NP108 Against Malassezia pachydermatis (CBS6536) in a Murine Model of Localised Dermatophyte Skin Infection (10 Days Post-Infection)
In this Malassezia spp. skin infection study, 30 male CD1 mice (10 per treatment group) were scored daily for 10 d post-infection based on the clinical observations of the infected area. Mice were treated with test article, 5% (w/v) NP108, 2% (w/v) miconazole or vehicle commencing 48 h post-infection for 6 d. Groups of 10 mice were euthanized for culture of skin tissue 10 d post-infection. Skin samples were dissected into 10 pieces per mouse and each piece streaked onto Modified Leeming Notman agar (MLNA) for culture at 30° C. for up to 7 d. Data from these samples has been recorded as number positive for Malassezia pachydermatis CBS6536 growth per mouse and approximate number of quantifiable cfu per streaked sample; plates were read after 3 d and 7 d incubation. Test article NP108 was supplied as a 5% (w/v) dosing preparation in 65% PEG14000, supplied ready to administer without any reconstitution or dilution required, as was vehicle preparation also.

[7] = test system: M. pachydermatis NCPF3667; test: MIC by modified CLSI M27-A3 broth dilution versus M. pachydermatis NCPF3667; format: cell-based, Malassezia pachydermatis; details: Table 2
Experimental: as §1

human red blood cells = test: Haematotoxicity (haemolysis) versus 10% human red blood cells; format: cell-based
Experimental: as §4

M. pachydermatis CBS6536 [8] = test: MIC by modified CLSI M27-A3 broth dilution versus M. pachydermatis CBS6536; format: cell-based, Malassezia pachydermatis
Experimental: as §1

M. furfur DSMZ6170 [9] = details: 0.4 mg/ml zinc pyrithione, under in vitro conditions (not in conditioner)
[10] = Table 1, 1×10^6-5×10^6 cells/ml, Modified Christensen's Medium
[11] = Table 2, M. pachydermatis CBS6536

Poly-L-Lysine [NP108]
MIC50 Median (M. furfur DSMZ6170 [1]; Table 2): 250 mg/L | MIC80 Median (M. furfur DSMZ6170 [1]; Table 2): 1000 mg/L | MIC80 Range (M. furfur DSMZ6170 [1]; Table 2): 500 to 2000 mg/L | MIC100 Median (M. furfur DSMZ6170 [1]; Table 2): 2000 mg/L | MIC100 Range (M. furfur DSMZ6170 [1]; Table 2): 2000 to 4000 mg/L | MIC50 Range (M. furfur DSMZ6170 [1]; Table 2, three independent experiments): 125 to 500 mg/L | antifungal activity (M. pachydermatis CBS6536 [2]; 1 mg/ml NP108 (0.1%) in H & S conditioner): no antifungal activity | killing of M. pachydermatis (M. pachydermatis CBS6536 [2]; 10 mg/ml NP108 (1.0%) in H & S conditioner, after as little as 3 min exposure): kills | Cytotoxicity (BJ; LD50) [3]: 4,500 μg/ml | killing of M. furfur (M. furfur DSMZ6170 [4]; 10 mg/ml NP108 (1.0%) in H & S conditioner, FIG. 7): Complete killing | antifungal activity (M. furfur DSMZ6170 [4]; 10 mg/ml NP108 (1.0%) in H & S conditioner, after as little as 3 min exposure, time-dependent increase, FIG. 7): demonstrates antifungal activity | killing of M. furfur (M. furfur DSMZ6170 [4]; 40 mg/ml NP108 (4.0%) in 10% (v/v) Pantene conditioner, FIG. 8): completely killing | killing of M. furfur (surviving cfu/ml) (M. furfur DSMZ6170 [5]): kills | tolerability of treatment ([6]; 5% (w/v) NP108 in 65% PEG14000, topical, throughout the study): well tolerated | positive skin cultures [6]: 84% | approximate number of cfu from skin biopsies, Group ave. [6]: 34.6 cfu/mouse | Group ave. Day+10 clinical score [6]: 0.65 | MIC50 Median [7]: 15.6 mg/L | MIC80 Median [7]: 15.6 to 31.3 mg/L | MIC100 Median [7]: 31.3 mg/L | Haemolysis (LD50) (human red blood cells): >10,000 μg/ml | MIC50 (M. pachydermatis CBS6536 [8]; [10]): 62.5 to 125 mg/L | MIC80 (M. pachydermatis CBS6536 [8]; [10]): 62.5 to 125 mg/L | MIC100 (M. pachydermatis CBS6536 [8]; [10]): 125 mg/L | MIC50 Median (M. pachydermatis CBS6536 [8]; [11]): 31.25 mg/L | MIC80 Median (M. pachydermatis CBS6536 [8]; [11]): 62.5 mg/L | MIC80 Range (M. pachydermatis CBS6536 [8]; [11]): 31.25 to 125 mg/L | MIC100 Median (M. pachydermatis CBS6536 [8]; [11]): 62.5 mg/L | MIC100 Range (M. pachydermatis CBS6536 [8]; [11]): 31.25 to 125 mg/L | MIC50 Range (M. pachydermatis CBS6536 [8]; Table 2, M. pachydermatis CBS6536, three independent experiments): 15.63 to 31.25 mg/L

Clc1ccc(COC(Cn2ccnc2)c2ccc(Cl)cc2Cl)c(Cl)c1 (centres unmarked) [miconazole, reference compound]
positive skin cultures [6]: 100% | approximate number of cfu from skin biopsies, Group ave. [6]: 131.4 cfu/mouse | Group ave. Day+10 clinical score [6]: 1.31

zinc pyrithione [reference compound]
antifungal activity (M. furfur DSMZ6170 [4]; 0.4 mg/ml zinc pyrithione in H & S conditioner, FIG. 7): no antifungal activity | killing of M. furfur (M. furfur DSMZ6170 [9]): sufficient to kill
